How the values were obtained:
[1] = system: sex steroid levels; assay: Sex steroid ablation therapy of a patient with an LHRH agonist (Example 6); assay type: in vivo, human; conditions: single dose effective for 3 months
Procedure: The patient was given sex steroid ablation therapy in the form of delivery of an LHRH agonist. This was given in the form of either Leucrin (depot injection; 22.5 mg) or Zoladex® (implant; 10.8 mg), either one as a single dose effective for 3 months. […] In some cases it is also necessary to deliver a suppresser of adrenal gland production of sex steroids. Cosudex® (5 mg/day or 50 mg/day) may also be given as one tablet per day for the duration of the sex steroid ablation therapy. Alternatively, the patient is given a GnRH antagonist, e.g., Cetrorelix or Abarelix, as a subcutaneous injection

[2] = system: sex steroid levels; assay: Zoladex before autologous or allogeneic PBSCT (Example 31); assay type: in vivo, human; conditions: implant from day -21 before PBSC infusion
Procedure: Patients are male or female, aged 18 years or older that are due to undergo high-dose therapy (HDT) with PBSCT for malignant disease or BM failure. The 10.8 mg implant formulation (for men) of the Zoladex® is dispersed in a cylindrical rod of biodegradable and biocompatible polyglactins and is released continuously over 12 weeks following subcutaneous injection. The 3.6 mg implant (for women) is dispersed in a cylindrical rod of a biodegradable and biocompatible polyglactin and is released continuously over 28 days following subcutaneous injection. The implants are commercially supplied in a purpose-designed applicator with 14-16 gauge needles.
Reduction of sex steroids in the blood to minimal values may take several weeks. Consequently, 21 days prior to PBSC infusion (day 0), patients are injected with the sex steroid ablation therapy in the form of LHRH agonist Zoladex® (implant). For males, 10.8 mg goserelin as a single dose (effective for 3 months) are administered on day −21 with a further injection of 3.6 mg on day 63 (effective for 28 days). For females, 3.6 mg (effective for 28 days) are administered on day −21 and days 7, 35 and 63. […] Other doses may be deemed acceptable as determined readily by those skilled in the art. […]
Thymic function is determined by assessment of T cell subsets by flow cytometry, T cell responses in vitro, and production of TRECs.

[3] = system: pituitary LH, serum testosterone; conditions: chronic administration, cited from earlier work

Structure (SMILES): CC(C)C[C@H](NC(=O)[C@@H](COC(C)(C)C)NC(=O)[C@H](Cc1ccc(O)cc1)NC(=O)[C@H](CO)NC(=O)[C@H](Cc1c[nH]c2ccccc12)NC(=O)[C@H](Cc1cnc[nH]1)NC(=O)[C@@H]1CCC(=O)N1)C(=O)N[C@@H](CCCNC(=N)N)C(=O)N1CCC[C@H]1C(=O)NNC(N)=O [Zoladex®, goserelin acetate]
- reduction of sex steroid levels [1]: effective in reducing sex steroid levels sufficiently to reactivate the thymus
- reduction of sex steroid levels [2]: effective in reducing sex steroid levels sufficiently to reactivate the thymus
- time to sustained suppression of pituitary LH ([3]; after initiation of therapy): ≤ 3 weeks
- serum testosterone levels in males [3]: range normally seen in surgically castrated men

Source: patent publication US20080279812A1, “Disease Prevention and Vaccination Prior to Thymic Reactivation” (Norwood Immunology, Ltd., priority 2003, published 2008)
